Laboratory results: PMC5354670, “Blockade of the malignant phenotype by β-subunit selective noncovalent inhibition of immuno- and constitutive proteasomes” (Oncotarget, 2017)

Columns and labels:
[1] = target: human constitutive 20S proteasome cCP, PA activity (β1) (Homo sapiens, UniProt P28072); experiment: Inhibition of PA activity of human cCP (substrate Z-LLE-βNA); details: for inhibition at 50 µM: pH 8, read-out: % inhibition at 50 μM PA, cCP
Procedure: (§7) They were assayed for in vitro inhibition of purified human cCP and iCP by measuring the hydrolysis of the β5 (ChT-L) substrate Suc-LLVY-AMC, β1 (PA) substrate Z-LLE-βNA, and β2 (T-L) substrate Boc-LRR-AMC in the presence of various concentrations of the tested molecules.
(§8) The experimental data are adjusted to equation 1 (c) or equation 2 (a, a’, b, b’, c’).
(§9) Purified human constitutive 20S proteasome cCP and human 20S immunoproteasome iCP from erythrocyte were obtained from Boston Biochem (Cambridge, USA). All fluorogenic substrates (Suc-LLVY-AMC, Boc-LRR-AMC, and Z-LLE-βNA) were obtained from Bachem (Weil am Rhein, Germany). […] Fluorescence was measured using a BMG Fluostar microplate reader (black 96-well microplates).
(§10) Substrates and compounds were previously dissolved in DMSO. The buffers were (pH 8.0): 20 mM Tris, 10% (v/v) glycerol, 0.01% (w/v) SDS, and 2% (v/v) DMSO (ChT-L and PA activities); 20 mM Tris, 10% (v/v) glycerol, 0.01% (w/v). The final iPR and cPR concentrations were 0.3 nM using 20 μM Suc-LLVY-AMC (ChT-L), 50 μM Boc-LRR-AMC (T-L) and 100 μM Z-LLE-βNA (PA). […] The enzyme and the inhibitors were incubated for 15 min before the measurement of the enzyme activity. Initial rates determined in control experiments (V0) were considered to be 100 % of the peptidase activity; initial rates (Vi) that were above 100 % in the presence of a tested compound were considered to be activations (expressed as activation factor), while initial rates below 100 % were considered to be inhibitions. […] The values of IC50 were calculated by fitting the experimental data to the equation 1 or equation 2, where nH is the Hill number.

[2] = target: human constitutive 20S proteasome cCP, T-L activity (β2) (Homo sapiens, UniProt Q99436); experiment: Inhibition of T-L activity of human cCP (substrate Boc-LRR-AMC); details: for inhibition at 50 µM: pH 8, read-out: % inhibition at 50 μM T-L, cCP; for fold induction at 50 µM: pH 8, read-out: x (activation factor) at 50 μM T-L, cCP
Procedure: as §7, §8, §9, §10

[3] = target: human constitutive 20S proteasome cCP, ChT-L activity (β5) (Homo sapiens, UniProt P28074); experiment: Inhibition of ChT-L activity of human cCP (substrate Suc-LLVY-AMC); details: for inhibition at 50 µM: pH 8, read-out: % inhibition at 50 μM ChT-L, cCP; for factor by which ChT-L activity of cCP is more efficiently inhibited than PA: PA vs ChT-L
Procedure: as §7, §8, §9, §10

[4] = test system: MDA-MB-231 cells (breast cancer); experiment: MTT cell viability assay, MDA-MB-231; format: cell-based; details: for cytotoxicity at higher doses: 48 h; for CC50: Homo sapiens, 48 h treatment, MTT, read-out: LC50 (the source's name)
Procedure: (§1) We first analyzed the cytotoxic effects of B1f and B3 treatment on colon (CT-26) and breast cancer cells (MDA-MB-231 cells) using the MTT cell viability assay. B1f and B3 inhibited the viability of these cells in a dose-dependent manner after 48 h treatment. Higher doses of B1f and B3 lead to 100% cytotoxicity (Figure 4A). […] We next assessed the effect of B1f and B3 on the proliferation of these cells during 24h. […] Similarly, to evaluate whether these inhibitors can affect their invasion, tumor cells were incubated for 24 h in a microchemotaxis chamber pre-coated with collagen IV (Figure 4C) in the presence of the compounds B1f or B3.
(§2) Figure 4 Effect of compounds B1f and B3 on tumor cell proliferation and invasion A. CT-26 and MDA-MB 231 cells were treated with various concentrations of indicated compounds for 48h and cells viability was measured by MTT assay. B. Tumor cells were serum deprived overnight and then treated for 24 h with control media (None) or media containing compound B3 or B1f. Cell proliferation was assessed using Cell Titer96 non-radioactive cell proliferation assay. Results are shown as means ± S.E. of three experiments performed in triplicate. *P < 0.05. **P < 0.001. *** P < 0.0001. C. Indicated tumor cells were incubated in a microchemotaxis chamber pre-coated with collagen IV for cell invasion assay as described in the Materials and Methods section. The results are represented as the percentage of invading cells. Data are representative of 3 experiments and shown as mean ± S.E. (n=3 per group). **P < 0.001. *** P < 0.0001.
(§3) For the viability assay, CT-26 (colon cancer) and MDA-MB231 (breast cancer) cells were plated in triplicate on 96 wells plate (5.10^3/well). After treatment with indicated drugs, cells were incubated for 48 hours at 37°C and incubated with solution of 5 mg/ml of 3-(4,5-dimethylthiazol-2-yl)-2,5-diphenyltetrazolium bromide (MTT) tetrazolium substrate (Sigma) for 30 minutes at 37°C prior analysis on a microplate reader at 570. The LC50 value was defined as the drug concentration causing 50% cell death (LD = lethal dose) compared to growth of the untreated control cells. For cell proliferation, cells were plated in triplicate on 96 wells plate (5.10^3/well) under serum free conditions for 24 h. The starved cells were then incubated for 24h with fresh media containing the two selected compounds B1f and B3 that inhibit both ChT-L and PA activities of iCP and cCP. […] Proliferation level in cells was evaluated, as reported previously using the Cell Titer96 non-radioactive cell proliferation assay kit (Promega) according to manufacturer’s protocol

[5] = test system: CT-26 cells (colon cancer); experiment: MTT cell viability assay, CT-26; format: cell-based; details: for cytotoxicity at higher doses: CT-26 cells, 48 h; for CC50: Mus musculus, CT26 cells, 48 h treatment, MTT, read-out: LC50 (the source's name)
Procedure: as §1, §2, §3

[6] = test system: CT-26 cells (colon cancer); experiment: Cell Titer96 non-radioactive cell proliferation assay, CT-26; format: cell-based; details: 10 μM, 24 h, vs control cells
Procedure: as §1
(§4) Figure 4 Effect of compounds B1f and B3 on tumor cell proliferation and invasion A. CT-26 and MDA-MB 231 cells were treated with various concentrations of indicated compounds for 48h and cells viability was measured by MTT assay. […] Cell proliferation was assessed using Cell Titer96 non-radioactive cell proliferation assay. […]
(§5) For the viability assay, CT-26 (colon cancer) and MDA-MB231 (breast cancer) cells were plated in triplicate on 96 wells plate (5.10^3/well). After treatment with indicated drugs, cells were incubated for 48 hours at 37°C and incubated with solution of 5 mg/ml of 3-(4,5-dimethylthiazol-2-yl)-2,5-diphenyltetrazolium bromide (MTT) tetrazolium substrate (Sigma) for 30 minutes at 37°C prior analysis on a microplate reader at 570. […]

[7] = test system: MDA-MB-231 cells (breast cancer); experiment: Cell Titer96 non-radioactive cell proliferation assay, MDA-MB-231; format: cell-based; details: 10 μM, 24 h, vs control cells
Procedure: as §1, §4, §5

[8] = test system: CT-26 cells (colon cancer); experiment: Cell invasion assay, microchemotaxis chamber pre-coated with collagen IV, CT-26; format: cell-based; details: 10 μM, 24 h
Procedure: as §1, §4
(§6) Cell invasion were determined using 24-well microchemotaxis chambers precoated with 7.5 μg collagen type IV (Becton Dickinson Labware), as previously described. […] Cell invasion were quantified by determination of the number of cells that migrated directly through the membrane toward the medium containing 10% serum that was used as a chemoattractant. […]

[9] = test system: MDA-MB-231 cells (breast cancer); experiment: Cell invasion assay, microchemotaxis chamber pre-coated with collagen IV, MDA-MB-231; format: cell-based; details: 10 μM, 24 h
Procedure: as §1, §4, §6

[10] = target: human 20S immunoproteasome iCP, PA activity (β1) (Homo sapiens, UniProt P28065); experiment: Inhibition of PA activity of human iCP (substrate Z-LLE-βNA); details: for ratio cCP/iCP, PA activity: IC50 cCP / IC50 iCP; for inhibition at 50 µM: pH 8, read-out: % inhibition at 50 μM PA, iCP
Procedure: as §7, §8, §9, §10

[11] = target: human 20S immunoproteasome iCP, T-L activity (β2) (Homo sapiens, UniProt P40306); experiment: Inhibition of T-L activity of human iCP (substrate Boc-LRR-AMC); details: for fold induction at 50 µM: pH 8, read-out: x (activation factor) at 50 μM T-L, iCP
Procedure: We decided to explore further their properties by testing their potential to inhibit human iCP versus cCP. They were assayed for in vitro inhibition of purified human cCP and iCP by measuring the hydrolysis of the β5 (ChT-L) substrate Suc-LLVY-AMC, β1 (PA) substrate Z-LLE-βNA, and β2 (T-L) substrate Boc-LRR-AMC in the presence of various concentrations of the tested molecules.
as §8
Purified human constitutive 20S proteasome cCP and human 20S immunoproteasome iCP from erythrocyte were obtained from Boston Biochem (Cambridge, USA). All fluorogenic substrates (Suc-LLVY-AMC, Boc-LRR-AMC, and Z-LLE-βNA) were obtained from Bachem (Weil am Rhein, Germany). Other reagents and solvents were purchased from commercial sources. Fluorescence was measured using a BMG Fluostar microplate reader (black 96-well microplates).
as §10

[12] = target: human 20S immunoproteasome iCP, ChT-L activity (β5) (Homo sapiens, UniProt P28062); experiment: Inhibition of ChT-L activity of human iCP (substrate Suc-LLVY-AMC); details: for ratio cCP/iCP, ChT-L activity: IC50 cCP / IC50 iCP; for inhibition at 50 µM: pH 8, read-out: % inhibition at 50 μM ChT-L, iCP
Procedure: as §7, §8, §9, §10

CC(C)(C)c1ccc(S(=O)(=O)N2CCN(c3ccc([N+](=O)[O-])c(NCc4ccccn4)c3)CC2)cc1 [Compound B1g]
IC50 [1]: 13.9 ± 1.4 µM
inhibition at 50 µM [2]: < 25%
IC50 [3]: 24.6 ± 3.5 µM

O=C(COc1ccc2ccccc2c1)N1CCN(S(=O)(=O)c2ccc([N+](=O)[O-])cc2)CC1 [Compound B3]
cytotoxicity at higher doses [4]: 100%
CC50 [4]: 15.4 ± 4.7 µM
cytotoxicity at higher doses [5]: 100%
CC50 [5]: 26.4 ± 1.7 µM
effect on proliferation [6]: significant reduction in their proliferation
effect on proliferation [7]: significant reduction in their proliferation
effect on invasion [8]: clearly decreased their ability to invade
effect on invasion [9]: clearly decreased their ability to invade
IC50 [10]: 7.1 ± 0.2 µM
IC50 [1]: 8.1 µM
inhibition at 50 µM ([11]; pH 8, read-out: % inhibition at 50 μM T-L, iCP): < 25%
inhibition at 50 µM [2]: < 25%
IC50 [12]: 6.7 ± 0.2 µM
IC50 [3]: 6.5 µM

O=[N+]([O-])c1ccc(N2CCN(S(=O)(=O)c3ccc4ccccc4c3)CC2)cc1 [Compound B2b]
inhibition at 50 µM [1]: 50%
fold induction at 50 µM [2]: 4.5
inhibition at 50 µM [3]: 58.9%

O=[N+]([O-])c1ccc(N2CCN(S(=O)(=O)c3ccc(Cl)cc3)CC2)cc1SCc1ccco1 [Compound B1f]
cytotoxicity at higher doses [4]: 100%
CC50 [4]: 45.8 ± 5.2 µM
cytotoxicity at higher doses [5]: 100%
CC50 [5]: 24.4 ± 8.6 µM
effect on proliferation [6]: significant reduction in their proliferation
effect on proliferation [7]: significant reduction in their proliferation
effect on invasion [8]: clearly decreased their ability to invade
effect on invasion [9]: clearly decreased their ability to invade
IC50 [10]: 3.7 ± 0.2 µM
ratio cCP/iCP, PA activity [10]: 2
IC50 [1]: 7.4 µM
fold induction at 50 µM [11]: 3
inhibition at 50 µM [2]: < 25%
IC50 [12]: 5.8 ± 0.2 µM
ratio cCP/iCP, ChT-L activity [12]: 0.45
IC50 [3]: 3.2 µM
factor by which ChT-L activity of cCP is more efficiently inhibited than PA [3]: 2.3

COc1ccc(S(=O)(=O)N2CCN(c3ccc([N+](=O)[O-])c(NCC(C)(C)C)c3)CC2)cc1OC [Compound B1i]
inhibition at 50 µM [1]: < 25%
inhibition at 50 µM [2]: < 25%
inhibition at 50 µM [3]: < 25%

O=[N+]([O-])c1ccc(N2CCN(S(=O)(=O)c3ccc(Cl)cc3)CC2)cc1Sc1ccccn1 [Compound B1d]
inhibition at 50 µM [1]: 46%
fold induction at 50 µM [2]: 4.7
inhibition at 50 µM [3]: < 25%

CC(=O)Nc1ccc(S(=O)(=O)N2CCN(c3ccc([N+](=O)[O-])c(NCCN4CCOCC4)c3)CC2)cc1 [Compound B1h]
inhibition at 50 µM [1]: 45%
inhibition at 50 µM [2]: < 25%

CC(C)(C)c1ccc(S(=O)(=O)N2CCN(c3ccc(Cl)cc3[N+](=O)[O-])CC2)cc1 [Compound B1c]
inhibition at 50 µM [10]: < 25%
inhibition at 50 µM [1]: < 25%
IC50 [11]: 3.3 ± 0.4 µM
cCP/iCP ratio for the IC50 values, T-L activity [11]: 2.4
IC50 [2]: 8.1 µM
inhibition at 50 µM [12]: < 25%
inhibition at 50 µM [3]: < 25%

O=[N+]([O-])c1ccc(N2CCN(S(=O)(=O)c3ccc4ccccc4c3)CC2)cc1SCCN1CCOCC1 [Compound B2a]
IC50 [1]: 31.2 ± 1 µM
inhibition at 50 µM [2]: < 25%

Cc1ccccc1N1CCN(S(=O)(=O)c2ccc(C(C)(C)C)cc2)CC1 [Compound B1b]
inhibition at 50 µM [10]: < 25%
inhibition at 50 µM [1]: < 25%
IC50 [11]: 2.6 ± 0.4 µM
cCP/iCP ratio for the IC50 values, T-L activity [11]: 4.6
IC50 [2]: 12 µM
inhibition at 50 µM [12]: < 25%
inhibition at 50 µM [3]: < 25%

Cc1ccc(S(=O)(=O)N2CCN(c3ccc([N+](=O)[O-])c(SCc4ccco4)c3)CC2)cc1 [Compound B1e]
IC50 [10]: 3.3 ± 0.3 µM
ratio cCP/iCP, PA activity [10]: 1.3
IC50 [1]: 4.2 µM
fold induction at 50 µM [11]: 3
inhibition at 50 µM [2]: < 25%
IC50 [12]: 5.5 ± 0.3 µM
ratio cCP/iCP, ChT-L activity [12]: 0.55
IC50 [3]: 2.5 µM
factor by which ChT-L activity of cCP is more efficiently inhibited than PA [3]: 1.7

CC(C)Cc1ccc(S(=O)(=O)N2CCN(c3ccc([N+](=O)[O-])cc3)CC2)cc1 [Compound B1a]
inhibition at 50 µM [10]: 25%
inhibition at 50 µM [1]: < 25%
cCP/iCP ratio for the IC50 values, T-L activity [11]: 1.4
IC50 [2]: 10.3 µM
inhibition at 50 µM [12]: < 25%
inhibition at 50 µM [3]: < 25%

O=[N+]([O-])c1ccc(N2CCN(S(=O)(=O)Cc3ccccc3)CC2)cc1NCCN1CCOCC1 [Compound B4]
inhibition at 50 µM [1]: < 25%
inhibition at 50 µM [2]: < 25%
inhibition at 50 µM [3]: < 25%
